Assay [1] deals with Sortase A (Staphylococcus aureus, UniProt Q9S446). Put plainly: Inhibition of Staphylococcus aureus ATCC 25904 Sortase A protease expressed in Escherichia coli BL21 expression system using Dabcyl-QALPETGEE-Edans as substrate incubated for 30 mins by FRET assay.
For assay [2], the system named is Staphylococcus aureus. Put plainly: Prevention of Staphylococcus aureus ATCC 25904 adherence to fibrinogen at 64 ug/ml by crystal violet staining based analysis relative to control. The format is functional. The conditions noted are these: dose 64 µg/ml.
Assay [3] relates to Streptococcus suis. Description: Prevention of Streptococcus suis ATCC 700794 adherence to sucrose-dependent membrane surface at 78.1 ug/ml relative to control. The format is functional. The note with it: dose 78.1 µg/ml.
The test system of assay [4] is Pseudomonas aeruginosa. Put plainly: Antibiofilm activity against Pseudomonas aeruginosa ATCC 27853 at 0.5 mg/ml measured after 24 hrs by crystal violet staining based assay relative to control. The format is functional.
The test system of assay [5] is Serratia marcescens. Put plainly: Antibacterial activity against Serratia marcescens ATCC 27117 assessed as inhibition of biofilm formation at 50 ug/ml incubated for 24 hrs by crystal violet staining based analysis relative to control. The format is functional. Set-up: scale not given: the % may be the effect or the level left. The conditions noted are these: dose 50 µg/ml.

The subject of assay [6] is Pseudomonas aeruginosa. Put plainly: Antibacterial activity against Pseudomonas aeruginosa PAO1 NCTC 10332 assessed as inhibition of biofilm formation incubated for 24 hrs by crystal violet staining based analysis. The format is functional, organism-based. The conditions noted are these: PAO1 NCTC 10332, 24 h.
Assay [7] has as its system Pseudomonas aeruginosa. Put plainly: Antibacterial activity against Pseudomonas aeruginosa PAO1 NCTC 10332 assessed as inhibition of biofilm formation at 100 ug/ml incubated for 24 hrs by crystal violet staining based analysis relative to control. The format is functional. Set-up: scale not given: the % may be the effect or the level left. The note with it: dose 100 µg/ml.

Assay [8] relates to Pseudomonas aeruginosa. Put plainly: Antibacterial activity against Pseudomonas aeruginosa PAO1 NCTC 10332 assessed as inhibition of biofilm dispersion incubated for 24 hrs by crystal violet staining based analysis. The format is functional, organism-based. The note with it: PAO1 NCTC 10332, 24 h.
The subject of assay [9] is Streptococcus mutans. Put plainly: Antibiofilm activity against Streptococcus mutans ATCC 2517 assessed as inhibition of biofilm formation at 128 ug/ml measured after 16 hrs by crystal violet staining based assay relative to control. The format is functional. On the set-up: scale not given: the % may be the effect or the level left. The conditions noted are these: dose 128 µg/ml.

For assay [10], the target named is Sortase A (Streptococcus mutans, UniProt Q8CM62). Put plainly: Inhibition of Streptococcus mutans ATCC 2517 Sortase A protease expressed in Escherichia coli BL21 expression system using Abz-LPATG-Dap(Dnp)-NH2 as substrate incubated for 1 hrs by FRET assay.
Assay [11] deals with T1, Fucose-binding lectin PA-IIL (Pseudomonas aeruginosa (strain ATCC 15692 / DSM 22644 / CIP 104116 / JCM14847 / LMG 12228 / 1C / PRS 101 / PAO1), UniProt Q9HYN5). Put plainly: Binding affinity to Pseudomonas aeruginosa PA14 LecB assessed as dissociation constant by isothermal titration calorimetry. (Isothermal titration calorimetry measures the heat released or taken up as one component is titrated into another.)
Target sequence in this assay (Q9HYN5 1-115): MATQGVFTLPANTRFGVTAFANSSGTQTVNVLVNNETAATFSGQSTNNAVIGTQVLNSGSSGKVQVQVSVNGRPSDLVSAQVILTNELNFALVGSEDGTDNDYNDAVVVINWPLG

Assay [12] has as its system Pseudomonas aeruginosa. Description: Antibiofilm activity against Pseudomonas aeruginosa PA14 measured after 48 hrs by confocal laser scanning microscope analysis relative to control. The assay is classed as functional.
Assay [13] addresses T1, Fucose-binding lectin PA-IIL. Put plainly: Binding affinity to Pseudomonas aeruginosa PAO1 LecB assessed as dissociation constant by isothermal titration calorimetry.
Target sequence in this assay (Q9HYN5 whole entry): as the sequence (Q9HYN5 1-115) above
Assay [14] has the same target. Description: Inhibition of Pseudomonas aeruginosa PA14 LecB incubated for 22 to 24 hrs by fluorescence polarization based competitive binding analysis.
Target sequence in this assay (Q9HYN5 1-115): as above
The nature of assay [15]: Inhibition of AHL-mediated quorum sensing system in Pseudomonas aeruginosa PAO1 assessed as decrease in C4-HSL levels at 64 ug/ml by HPLC/MS analysis relative to control. The conditions noted are these: dose 64.0 µg/ml.
For assay [16], the system named is Burkholderia cepacia. Description: In vivo antibacterial activity against Burkholderia cepacia LMG 16656 infected in BALB/C mouse assessed as reduction in bacterial load in lung at 2 mg/kg, INH administered for 24 to 48 hr post bacterial infection and measured after 3 days post compound treatment in presence of tobramycin relative to control. The assay is classed as functional. Set-up: scale not given: the % may be the effect or the level left. The conditions noted are these: time 3 day.

The target of assay [17] is 3-(3-hydroxydecanoyloxy)decanoate synthase (Pseudomonas aeruginosa (strain ATCC 15692 / PAO1 / 1C / PRS 101 / LMG12228)) (UniProt Q51559). Put plainly: Inhibition of Pseudomonas aeruginosa PAO1 Rhamnolipid at 64 to 256 ug/ml by spectrophotometrical analysis relative to control. The note with it: dose 64-256 µg/ml.
The subject of assay [18] is Pseudomonas aeruginosa. Put plainly: Antibiofilm activity against Pseudomonas aeruginosa PAO1 assessed as reduction in bacterial growth by crystal violet staining based assay. The format is functional.
For assay [19], the system named is Pseudomonas aeruginosa. Description: Inhibition of Pseudomonas aeruginosa PAO1 Pyocyanin at 64 to 256 ug/ml by spectrophotometrical analysis relative to control. The conditions noted are these: dose 64-256 µg/ml.
Assay [20] concerns the target Elastase (Pseudomonas aeruginosa (strain ATCC 15692 / PAO1 / 1C / PRS 101 / LMG12228)) (UniProt P14756). Put plainly: Inhibition of Pseudomonas aeruginosa PAO1 LasB elastase at 64 to 256 ug/ml incubated for 16 hrs by elastin Congo red (ECR) assay relative to control. The note with it: dose 64-256 µg/ml.
Assay [21] has as its target Protease LasA (Pseudomonas aeruginosa) (UniProt P14789). Description: Inhibition of Pseudomonas aeruginosa PAO1 LasA protease at 64 to 256 ug/ml using azocasein as substrate incubated for 24 hrs by spectrophotometrical analysis relative to control. The conditions noted are these: dose 64-256 µg/ml.
In assay [22] the test system is Escherichia coli. Description: Antibiofilm activity against Escherichia coli UTI89. The assay is classed as functional, organism-based.
Assay [23] has as its target Type 1 fimbrin D-mannose specific adhesin (Escherichia coli K-12) (UniProt P08191). Description: Inhibition of Escherichia coli UTI89 FimH by hemagglutination assay.
Assay [24] can be described thus: Binding affinity to Lactobacillus reuteri Glucosyltransferase assessed as dissociation constant by SPR analysis. On the set-up: species or system Limosilactobacillus reuteri.

Converted amounts (≈) assume the structure as drawn.

Chain of Sortase A (Staphylococcus aureus, UniProt Q9S446) (Q9S446 whole entry): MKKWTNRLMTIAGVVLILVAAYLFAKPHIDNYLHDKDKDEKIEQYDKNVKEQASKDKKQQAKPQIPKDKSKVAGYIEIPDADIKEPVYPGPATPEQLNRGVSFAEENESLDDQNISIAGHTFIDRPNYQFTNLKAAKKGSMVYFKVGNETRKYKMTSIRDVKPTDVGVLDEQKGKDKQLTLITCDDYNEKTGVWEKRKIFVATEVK
Chain of Sortase A (Streptococcus mutans, UniProt Q8CM62) (Q8CM62 whole entry): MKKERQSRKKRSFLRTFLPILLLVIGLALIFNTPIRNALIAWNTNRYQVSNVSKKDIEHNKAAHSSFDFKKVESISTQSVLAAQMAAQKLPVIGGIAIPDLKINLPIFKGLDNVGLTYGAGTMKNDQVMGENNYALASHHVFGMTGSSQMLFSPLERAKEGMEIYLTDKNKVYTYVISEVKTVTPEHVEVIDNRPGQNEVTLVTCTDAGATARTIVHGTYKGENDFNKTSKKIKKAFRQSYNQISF
Chain of Type 1 fimbrin D-mannose specific adhesin (Escherichia coli K-12) (P08191 whole entry): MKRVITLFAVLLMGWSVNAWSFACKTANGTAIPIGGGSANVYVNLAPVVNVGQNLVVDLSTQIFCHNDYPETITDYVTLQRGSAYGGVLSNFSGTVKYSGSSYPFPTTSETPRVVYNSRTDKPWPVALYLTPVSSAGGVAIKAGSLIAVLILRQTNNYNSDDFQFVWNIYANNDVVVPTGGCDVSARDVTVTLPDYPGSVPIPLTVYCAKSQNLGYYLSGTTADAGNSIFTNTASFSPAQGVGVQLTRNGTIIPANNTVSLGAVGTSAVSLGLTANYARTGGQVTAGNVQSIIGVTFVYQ
Chain of Elastase (Pseudomonas aeruginosa (strain ATCC 15692 / PAO1 / 1C / PRS 101 / LMG12228)) (P14756 198-498 limits assumed): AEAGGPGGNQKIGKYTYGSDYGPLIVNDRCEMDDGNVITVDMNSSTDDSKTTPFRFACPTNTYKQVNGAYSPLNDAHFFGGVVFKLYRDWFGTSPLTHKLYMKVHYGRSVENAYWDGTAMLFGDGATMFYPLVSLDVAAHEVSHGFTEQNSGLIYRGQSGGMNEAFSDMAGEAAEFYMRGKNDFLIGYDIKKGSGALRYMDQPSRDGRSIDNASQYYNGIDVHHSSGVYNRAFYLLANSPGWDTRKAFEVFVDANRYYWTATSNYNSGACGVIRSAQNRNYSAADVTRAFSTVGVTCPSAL
Chain of Protease LasA (Pseudomonas aeruginosa) (P14789 whole entry): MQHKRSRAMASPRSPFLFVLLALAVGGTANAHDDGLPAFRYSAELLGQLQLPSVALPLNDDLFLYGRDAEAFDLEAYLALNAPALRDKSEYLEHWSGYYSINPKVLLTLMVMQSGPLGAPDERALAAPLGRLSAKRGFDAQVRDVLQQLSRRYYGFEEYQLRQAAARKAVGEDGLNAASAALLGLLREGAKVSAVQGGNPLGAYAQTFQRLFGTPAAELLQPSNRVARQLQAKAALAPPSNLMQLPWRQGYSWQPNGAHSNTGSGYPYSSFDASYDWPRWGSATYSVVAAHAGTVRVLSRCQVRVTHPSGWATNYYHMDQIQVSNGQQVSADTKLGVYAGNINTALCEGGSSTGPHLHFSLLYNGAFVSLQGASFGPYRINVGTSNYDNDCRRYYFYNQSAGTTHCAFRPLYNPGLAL

In the case of `C[C@H]1O[C@@H](Oc2c(-c3ccc(O)c(O)c3)oc3cc(O)cc(O)c3c2=O)[C@H](O)[C@H](O)[C@H]1O`, in assay [1], half-maximal inhibition (IC50) required 71400 nM. The Activity in [2] is on record as 51.9%.
In [3], `C[C@@H]1O[C@@H](OC[C@H]2O[C@@H](Oc3c(-c4ccc(O)c(O)c4)oc4cc(O)cc(O)c4c3=O)[C@H](O)[C@@H](O)[C@@H]2O)[C@H](O)[C@H](O)[C@H]1O` [RUTIN] gave an Activity of 20%.
In assay [4], `CC(=O)O[C@@H]1[C@H](O[C@H]2CC[C@H](C)[C@@]3(C)C[C@@H](/C(C)=C/CC=C(C)C)CC[C@H]23)OC[C@@H](OC(C)=O)[C@H]1OC(C)=O` displayed an Activity of 60%.
Take `CCCCCCC[C@H](CC(=O)N1CCOCC1)OC(=O)C[C@@H](CCCCCCC)O[C@@H]1O[C@@H](C)[C@H](O)[C@@H](O)[C@H]1O[C@@H]1O[C@@H](C)[C@H](O)[C@@H](O)[C@H]1O`: the values for the Activity in assay [5] and in [7] were above 80% and 90%, respectively. Besides, the IC50 in assay [6] is 12.5 µg/mL (≈ 17.4 µM); in assay [8], 10 µg/mL (≈ 13.9 µM).
Consider `C[C@H]1O[C@@H](O[C@H]2C(=O)c3c(O)cc(O)cc3O[C@@H]2c2ccc(O)c(O)c2)[C@H](O)[C@H](O)[C@H]1O`, for which the Activity in assay [9] was determined as 70%. Inhibition in [10] was half-maximal at 16700 nM (IC50).
With `Cc1cc(C)c(S(=O)(=O)NC[C@H]2O[C@@H](C)[C@@H](O)[C@@H](O)[C@@H]2O)c(C)c1`, the Kd came out at 310 nM in assay [11] and 1270 nM in assay [13]. Besides, in assay [12], the Activity came out at 80%. The IC50 in assay [14] stood at 340 nM.
As to `O=C(O)[C@H]1O[C@@H](Oc2cc3oc(-c4ccccc4)cc(=O)c3c(O)c2O)[C@H](O)[C@@H](O)[C@@H]1O` [BAICALIN], the inhibition in assay [15] turned out to be 77.2%; in assay [17] it was 45.1%; in assay [19] it was 61.7%; in assay [20] it was 77.1%; in assay [21], 48.6%. Also, in assay [16], the Activity stood at 99%. In [18], the MIC was above 1020 µg/mL.
`Cc1cc(-c2ccc3cc[nH]c(=O)c3c2)ccc1O[C@H]1O[C@H](CO)[C@@H](O)[C@H](O)[C@@H]1O` showed a half-maximal inhibitory concentration (IC50) in [22] of 130 nM. The EC>90 in [23] is 31 nM.
In assay [12], `C[C@@H]1O[C@H](CNS(=O)(=O)c2cccs2)[C@@H](O)[C@H](O)[C@@H]1O` registered an Activity of 80%.
For the compound `C[C@H]1[C@H](Oc2ccc(/C=N/NC(=O)COc3ccccc3Cl)cc2)O[C@H](CO)[C@@H](O)[C@@H]1O`, in assay [24], the dissociation constant Kd was found to be 400000 nM.
In the case of `C[C@@H]1O[C@H](CNC(=O)/C=C/c2ccccc2)[C@@H](O)[C@H](O)[C@@H]1O`, the values for the dissociation constant (Kd) in [11] and in assay [13] were 2590 nM and 3090 nM, respectively. In addition, the half-maximal inhibitory concentration (IC50) in assay [14] is 2500 nM.

Usually IC50 stands for the point on the concentration scale where inhibition reaches its midpoint. A word on the Kd: it is the concentration at which binding is half-saturated. What is called inhibition is how much of the control response was suppressed.

The record behind these values is ChEMBL document CHEMBL5137057, “Small Carbohydrate Derivatives as Potent Antibiofilm Agents” (J Med Chem, 2022).
